Reference: patent publication US12576083B2, “Combinational therapy of LSD1 inhibitors with P21 activators in the treatment of cancer” (Istituto Europeo di Oncologia S.r.l., priority 2017, dated 2026)
Entries after “also recorded” stand apart in the source; their conditions may differ.

Tests used:
[1] = test system: Acute promyelocytic leukemia (APL) NB4 cells; assay: NB4 cells treated with MC2580: proliferation, Wright-Giemsa staining, serial replating CFU assay; type: cell-based; conditions: 2 μM, 6 days, DMSO control
Protocol: FIGS. 1A-1C. […] (FIG. 1A) Relative proliferation of NB4 APL cells treated with MC2580 ([…]) and RA ([…]) for indicated times (DMSO serves as control). (FIG. 1B) Representative light micrographs show Wright-Giemsa staining of NB4 cell after treatment for 6 days. (DMSO serves as a control). (FIG. 1C) Analysis of the proliferative potential of treated NB4 cells by serial replating assay. (DMSO serves as control). (RA high(h)=retinoic acid, 1 μM, LSD1i=LSD1 inhibitor=MC2580).
Acute promyelocytic leukemia (APL) NB4 cells were treated with 2 μM LSD1 inhibitor MC2580, 1 μM retinoic acid (RA), and DMSO (control) for 6 days. The proliferation of the treated cells were quantified before treatment and during each of the 6 days (FIG. 1A). The treated cells were analyzed under light micrographs using Wright-Giemsa staining (FIG. 1B). The proliferation potential of the treated cells were analyzed by serial replating and Colony-Forming Unit (CFU) Assay (FIG. 1C).

[2] = test system: Acute promyelocytic leukemia (APL) UF1 cells; assay: UF1 cells treated with MC2580: proliferation and Wright-Giemsa staining; type: cell-based; conditions: 2 μM, 7 days, DMSO control
Protocol: (§1) FIGS. 2A-2E. […] (FIG. 2A) Relative proliferation of UF1 cells treated with MC2580 (2 μM) and/or retinoic acid (10 nM) for 1 week. (FIG. 2B) Representative light micrograph show Wright-Giemsa staining of UF1 cell after treatment for 1 week. […] Values are normalized against GAPDH. (FIG. 2D) Immunoblot of PML-RARα in treated UF1 cells with indicated inhibitors. LSD1 inhibitors induces differentiation without PML-RARα degradation. (tubulin serves as control). (FIG. 2E) summary of cell-cycle status of UF1 cells following 1 week treatment with indicated inhibitors. (retinoic acid low(l)=10 nM, LSD1i=LSD1 inhibitor=MC2580).
(§2) Acute promyelocytic leukemia (APL) UF1 cells were treated with 2 μM LSD1 inhibitor MC2580, 10 nM retinoic acid (RA), 2 μM LSD1 inhibitor MC2580 plus 10 nM RA, and DMSO (control) for 7 days. The proliferation of the treated cells were quantified before treatment and post-treatment from each of day 2 to day 7 (FIG. 2A). The cells following the 1 week treatment were analyzed under light micrographs using Wright-Giemsa staining (FIG. 2B). The LSD1-inhibition induced expression of CD11b gene expression were analyzed. The mRNA of CD11b of the treated cells under each condition were normalized using GAPDH (FIG. 2C). PML-RARα protein level in the treated cells was analyzed by immune-blotting using an antibody against PML-RARα. Immuno-blotting of tubulin was used as loading control. […]

UF1 cells = assay: Cell cycle analysis of UF1 cells; type: cell-based; conditions: 1 week treatment
Protocol: Acute promyelocytic leukemia (APL) UF1 cells were treated with 2 μM LSD1 inhibitor MC2580, 10 nM retinoic acid (RA), 2 μM LSD1 inhibitor MC2580 plus 10 nM RA, and DMSO (control) for 7 days. The proliferation of the treated cells were quantified before treatment and post-treatment from each of day 2 to day 7 (FIG. 2A). The cells following the 1 week treatment were analyzed under light micrographs using Wright-Giemsa staining (FIG. 2B). The LSD1-inhibition induced expression of CD11b gene expression were analyzed. The mRNA of CD11b of the treated cells under each condition were normalized using GAPDH (FIG. 2C). PML-RARα protein level in the treated cells was analyzed by immune-blotting using an antibody against PML-RARα. Immuno-blotting of tubulin was used as loading control. (FIG. 2D). […] Cell cycle analysis were performed following the 1 week treatment. […] (FIG. 2E).
UF1 cells were treated with p21-shRNA, scramble shRNA (SCR), LSD1 inhibitor MC2580, p21-shRNA plus MC2580, scramble shRNA (SCR) plus MC2580. Non-infected (NI) UF1 cells were included as control. The proliferation of the treated cells were quantified before treatment and post-treatment from each of day 2 to day 7 (FIG. 5C). The cells following the 1 week treatment were analyzed under light micrographs using Wright-Giemsa staining (FIG. 5D). Cell cycle analysis were performed following the 1 week treatment. […] (FIG. 5E).

PML-RARα = assay: Immunoblot of PML-RARα in treated UF1 cells; type: cell-based; conditions: tubulin loading control
Protocol: as §1, §2

CD11b gene = CD11b gene expression in UF1 cells (mRNA normalized against GAPDH); type: cell-based
Protocol: as §1, §2

p21 [3] = assay: p21 protein (Western-blot) and p21 gene expression in UF1 cells; type: cell-based
Protocol: FIGS. 6A-6B. LSD1 inhibition leads to further upregulation of P21 RNA and protein level but not in P21KD cells. (FIG. 6A) Immunoblot of P21 in MC2580-treated UF1 cells. […] (SCR=Scramble shRNA, NI=Not Infected, LSD1i=LSD1 inhibitor=MC2580).
UF1 cells were treated with p21-shRNA, scramble shRNA (SCR), LSD1 inhibitor MC2580, p21-shRNA plus MC2580, scramble shRNA (SCR) plus MC2580. Non-infected (NI) UF1 cells were included as control. Immuno-blotting of tubulin was used as loading control.

Kasumi cells = assay: Cell cycle analysis of Kasumi cells; type: cell-based; conditions: 1 week treatment
Protocol: (§3) Kasumi cells were treated with p21-shRNA, scramble shRNA (SCR), LSD1 inhibitor MC2580, p21-shRNA plus MC2580, scramble shRNA (SCR) plus MC2580. Non-infected (NI) Kasumi cells were included as control. The proliferation of the treated cells were quantified before treatment and post-treatment from day 2, day 4, and day 7 (FIG. 7C). The cells following the 1 week treatment were analyzed under light micrographs using Wright-Giemsa staining (FIG. 7D). Cell cycle analysis were performed following the 1 week treatment.

p21 [4] = assay: Western-blot of p21 in Kasumi cells; type: cell-based
From the text: FIGS. 7A-7F. […] (FIG. 7C) Relative proliferation of Kasumi cells infected with SCR (control) or p21 shRNA treated with MC2580. (FIG. 7D) Representative light micrograph show Wright-Giemsa staining of Kasumi cells after 1 week treatment with indicated inhibitors. (FIG. 7E) summary of cell-cycle status of Kasumi cells following 1 week treatment with indicated inhibitors. (FIG. 7F) Immunoblot of P21 in MC2580-treated Kasumi cells. (SCR=Scramble shRNA, NI=Not Infected, LSD1i=LSD1 inhibitor=MC2580).
as §3

[5] = test system: small cell lung carcinoma NCI-H69 cells; assay: Cell cycle analysis of NCI-H69 cells; type: cell-based; conditions: 1 week treatment
Protocol: (§4) FIGS. 8A-8D. […] (FIG. 8B) Relative proliferation of NCI-H69 cells infected with SCR (control) or p21 shRNA treated with MC2580. (FIG. 8C) Summary of cell-cycle status of NCI-H69 cells following 10 days treatment with indicated inhibitors. (FIG. 8D) Immunoblot of P21 in MC2580-treated NCI-H69 cells. (SCR=Scramble shRNA, NI=Not Infected, LSD1i=LSD1 inhibitor=MC2580).
as §3, with “NCI-H69” for “Kasumi”, “4, day 6, day 8,” for “4,”, “10” for “7”, “8B).” for “7C). The cells following the 1 week treatment were analyzed under light micrographs using Wright-Giemsa staining (FIG. 7D).”

p21 [6] = assay: Western-blot of p21 in NCI-H69 cells; type: cell-based
Protocol: as §4
as §3, with “NCI-H69” for “Kasumi”, “4, day 6, day 8,” for “4,”, “10” for “7”, “8B).” for “7C). The cells following the 1 week treatment were analyzed under light micrographs using Wright-Giemsa staining (FIG. 7D).”

NB4 cells = NB4 cells treated with HDAC inhibitors with or without MC2580: proliferation, staining, cell cycle analysis; type: cell-based; conditions: versus untreated control cells (Scr-DMSO), 1 week treatment
From the text: FIGS. 10A-10D. […] (FIG. 10A) Relative proliferation of NB4 cells infected with SCR (control) or p21 shRNA and treated with HDAC inhibitor and/or MC2580. (FIG. 10B and FIG. 10C) Representative light micrograph show Wright-Giemsa staining of NB4 cells infected with SCR (control) or p21 shRNA and treated with HDAC inhibitor and/or MC2580. (FIG. 10D) Summary of cell-cycle status of NB4 cells infected with SCR (control) or p21 shRNA and treated with HDAC inhibitor and/or MC2580. (SCR=Scramble shRNA, NI=Not Infected, LSD1i=LSD1 inhibitor=MC2580).
NB4 cells were treated with HDAC inhibitors, trichostatin A (TSA) and suberoylanilide hydroxamic acid (SAHA), in combination with p21-shRNA or scramble shRNA (SCR), with or without LSD1 inhibitor MC2580. NB4 cells with p21 knock-down without HDAC inhibitor treatment (p21KD-DMSO), NB4 cells without p21 knock-down and without HDAC inhibitor treatment (Scr-DMSO) were included as control. The proliferation of the treated cells were quantified before treatment and post-treatment from day 2, day 4, and day 6 (FIG. 10A). The treated cells were analyzed under light micrographs using Wright-Giemsa staining (FIG. 10B and FIG. 10C). Cell cycle analysis were performed following the 1 week treatment.

[7] = test system: primary human melanoma cell lines (MMC-27B, MMC-49, MMC-936, MMC-35, MMC-38B, MMC-34); assay: Proliferation of six primary human melanoma cell lines with or without MC2580; type: cell-based; conditions: MC2580 2 μM, 6 days, versus cell lines having a shorter doubling time
Protocol: FIG. 14 depicts the proliferation of six primary human melanoma cell lines (MMC-27B, MMC-49, MMC-936, MMC-35, MMC-38B, MMC-34) over 6 days with or without treatment of LSD1 inhibitor MC2580 (2 μM) was analyzed. “MC” stands for MC2580 treated cells. “DMSO” stands for control cells treated with DMSO.
The proliferation of six primary human melanoma cell lines (MMC-27B, MMC-49, MMC-936, MMC-35, MMC-38B, MMC-34) over 6 days with or without treatment of an LSD1 inhibitor (MC2580) was analyzed. “MC” stands for MC2580 treated cells. Control cells (“DMSO”) were treated with DMSO.

MMC-38B and MMC-34 cells [8] = assay: Proliferation of MMC-38B and MMC-34 melanoma cells with shRNA and MC2580; type: cell-based, human; conditions: MMC-38B and MMC-34, 6 days, rescued by p21 knock-down
Protocol: FIG. 16A depicts relative proliferation of melanoma cells (MMC-38B and MMC-34) that were treated with p21-shRNA (“P21KD-DMSO”), scramble shRNA (“SCR-DMSO”), scramble shRNA plus LSD1 inhibitor MC2580 (“SCR-LSD1i”), or p21-shRNA plus MC2580 (“P21KD-LSD1i”). Data are presented as mean of triplicates±SD.
(§5) MMC-38B and MMC-34 cells were treated with p21-shRNA (“P21KD-DMSO”), scramble shRNA (“SCR-DMSO”), scramble shRNA plus LSD1 inhibitor (MC2580) (“SCR-LSD1i”), or p21-shRNA plus MC2580 (“P21KD-LSD1i”). Tubulin was used as a loading control.

MMC-38B and MMC-34 cells [9] = assay: Cell cycle analysis of MMC-38B and MMC-34 melanoma cells; type: cell-based, human; conditions: MMC-38B and MMC-34, rescued by p21 knock-down
Protocol: FIG. 16B depicts cell-cycle status of melanoma cells analyzed in FIG. 16A.
as §5

p21 [10] = assay: p21 expression (immunoblotting) in MMC-38B and MMC-34 melanoma cells; type: cell-based, human; conditions: MMC-38B and MMC-34, rescued by p21 knock-down
Protocol: FIG. 16C depicts the p21 expression level in melanoma cells analyzed in FIG. 16A.
as §5

p21 gene = assay: Chromosome Conformation Capture assays (3C-qPCR) in UF1 and NB4 cells; type: cell-based; conditions: UF1 and NB4 cells, 12, 24, or 36 hours
Protocol: FIG. 27 depicts results from chromosome conformation capture assays (3C-qPCR) performed with chromatin from UF1 and NB4 cells that were treated for indicated times with the LSD1 inhibitor MC2580. (NT: not treated).
Luciferase reporter assays were performed to measure the activity of enhancer 1 (“E1”) and enhancer 1 (“E2”) of the p21 gene promoter in 293T cells and the results are depicted in FIG. 26. The pGL3 plasmid without the enhancer region (empty) was used as a negative control. Chromosome Conformation Capture assays (3C-qPCR) were performed with chromatin from UF1 and NB4 cells that were treated with the LSD1 inhibitor MC2580 for 12, 24, or 36 hours and the results are depicted in FIG. 27. Untreated cells (“Neg”) were included as control.

NC1CC1c1ccc(NC(=O)C(Cc2ccccc2)NC(=O)OCc2ccccc2)cc1 (centres unmarked) [MC2580]
sensitivity of NB4 cells to LSD1 inhibitor [1]: resistant to LSD1 inhibition; also recorded: largely insensitive
sensitivity of UF1 cells to LSD1 inhibitor [2]: sensitive
UF1 cells arrested at the G0/G1 phase (UF1 cells): More UF1 cells were arrested at the G0/G1 phase
UF1 cell differentiation and PML-RARα degradation (PML-RARα): induces UF1 cells differentiation without PML-RARα degradation
expression of the CD11b gene (myeloid differentiation marker) (CD11b gene): induces expression of the CD11b gene
p21 gene (CDKN1A) expression in UF1 cells (p21 [3]): induces p21 expression; also recorded: expressed at a higher level
p21 protein level in UF1 cells (p21 [3]; Western-blot, tubulin loading control): increased
Kasumi cells arrested at the G0/G1 phase (Kasumi cells): More Kasumi cells were arrested at the G0/G1 phase
p21 protein level in Kasumi cells (p21 [4]): increased
NCI-H69 cells arrested at the G0/G1 phase [5]: More NCI-H69 cells were arrested at the G0/G1 phase
p21 protein level in NCI-H69 cells (p21 [6]): increased
NB4 cells arrested at the G0/G1 phase, LSD1 inhibitor alone (NB4 cells): More NB4 cells were arrested at the G0/G1 phase
proliferation of slow-cycling melanoma cell lines (MMC-38B, MMC-34) [7]: more affected
cell growth of human primary melanoma cells (MMC-38B and MMC-34 cells [8]): cell growth inhibition
cell cycle of human primary melanoma cells (MMC-38B and MMC-34 cells [9]): cell cycle arrest
p21 expression in human primary melanoma cells (p21 [10]): increase of p21 expression
looping of E1 and E2 enhancer regions to the transcription start site of the p21 gene (p21 gene): induces dynamic looping
